Source: PubChem BioAssay (NCI)
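GI50 is the concentration that inhibits growth by half. TGI marks complete inhibition of growth.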

Tests used:
Experiment in all cases: NCI anticancer screen, dose series, 384-well format
NCI-H522 lung = tested on: NCI-H522 lung
BT-549 breast = tested on: BT-549 breast
A498 renal = tested on: A498 renal
NCI-H226 lung = tested on: NCI-H226 lung
SF-295 CNS = tested on: SF-295 CNS
IGROV1 ovarian = tested on: IGROV1 ovarian
UACC-257 melanoma = tested on: UACC-257 melanoma
MDA-MB-435 melanoma = tested on: MDA-MB-435 melanoma
RXF 393 renal = tested on: RXF 393 renal
K-562 leukemia = tested on: K-562 leukemia
RPMI-8226 leukemia = tested on: RPMI-8226 leukemia
SF-268 CNS = tested on: SF-268 CNS
NCI/ADR-RES ovarian = tested on: NCI/ADR-RES ovarian
OVCAR-4 ovarian = tested on: OVCAR-4 ovarian
OVCAR-8 ovarian = tested on: OVCAR-8 ovarian
SN12C renal = tested on: SN12C renal
T-47D breast = tested on: T-47D breast
COLO 205 colon = tested on: COLO 205 colon
HOP-92 NSCLC = tested on: HOP-92 NSCLC
MCF7 breast = tested on: MCF7 breast
SNB-19 CNS = tested on: SNB-19 CNS
HS 578T breast = tested on: HS 578T breast
HOP-62 NSCLC = tested on: HOP-62 NSCLC
SNB-75 CNS = tested on: SNB-75 CNS
A549 NSCLC = tested on: A549 NSCLC
HCT-116 colon = tested on: HCT-116 colon
DU-145 prostate = tested on: DU-145 prostate
SK-OV-3 ovarian = tested on: SK-OV-3 ovarian
KM12 colon = tested on: KM12 colon
CAKI-1 renal = tested on: CAKI-1 renal
HT29 colon = tested on: HT29 colon
UACC-62 melanoma = tested on: UACC-62 melanoma
HCT-15 colon = tested on: HCT-15 colon
HCC-2998 colon = tested on: HCC-2998 colon
SF-539 CNS = tested on: SF-539 CNS
OVCAR-3 ovarian = tested on: OVCAR-3 ovarian
PC-3 prostate = tested on: PC-3 prostate
NCI-H322M lung = tested on: NCI-H322M lung
M14 melanoma = tested on: M14 melanoma
TK-10 renal = tested on: TK-10 renal
CCRF-CEM leukemia = tested on: CCRF-CEM leukemia
SK-MEL-28 melanoma = tested on: SK-MEL-28 melanoma
MDA-MB-231 breast = tested on: MDA-MB-231 breast
MOLT-4 leukemia = tested on: MOLT-4 leukemia
UO-31 renal = tested on: UO-31 renal
MDA-MB-468 breast = tested on: MDA-MB-468 breast
LOX IMVI melanoma = tested on: LOX IMVI melanoma
HL-60(TB) leukemia = tested on: HL-60(TB) leukemia
MALME-3M melanoma = tested on: MALME-3M melanoma
NCI-H23 lung = tested on: NCI-H23 lung
NCI-H460 NSCLC = tested on: NCI-H460 NSCLC
SW-620 colon = tested on: SW-620 colon
EKVX NSCLC = tested on: EKVX NSCLC
SK-MEL-5 melanoma = tested on: SK-MEL-5 melanoma
786-0 renal = tested on: 786-0 renal
ACHN renal = tested on: ACHN renal
U251 glioblastoma = tested on: U251 glioblastoma

COc1cc(N2CCC(N)CC2)ccc1Nc1ncc(Cl)c(-c2c[nH]c3ccccc23)n1
GI50 (NCI-H522 lung): 221 nM | TGI (NCI-H522 lung): 1230 nM | GI50 (BT-549 breast): 1140 nM | TGI (BT-549 breast): 2360 nM | GI50 (A498 renal): 296 nM | TGI (A498 renal): 1330 nM | GI50 (NCI-H226 lung): 112 nM | TGI (NCI-H226 lung): 663 nM | GI50 (SF-295 CNS): 1450 nM | TGI (SF-295 CNS): 2770 nM | GI50 (IGROV1 ovarian): 284 nM | TGI (IGROV1 ovarian): 1000 nM | GI50 (UACC-257 melanoma): 789 nM | TGI (UACC-257 melanoma): 2100 nM | GI50 (MDA-MB-435 melanoma): 395 nM | TGI (MDA-MB-435 melanoma): 1790 nM | GI50 (RXF 393 renal): 739 nM | TGI (RXF 393 renal): 2050 nM | GI50 (K-562 leukemia): 876 nM | TGI (K-562 leukemia): 2130 nM | GI50 (RPMI-8226 leukemia): 476 nM | TGI (RPMI-8226 leukemia): 1580 nM | GI50 (SF-268 CNS): 1150 nM | TGI (SF-268 CNS): 2400 nM | GI50 (NCI/ADR-RES ovarian): 1480 nM | TGI (NCI/ADR-RES ovarian): 2810 nM | GI50 (OVCAR-4 ovarian): 1210 nM | TGI (OVCAR-4 ovarian): 2480 nM | GI50 (OVCAR-8 ovarian): 1170 nM | TGI (OVCAR-8 ovarian): 2410 nM | GI50 (SN12C renal): 513 nM | TGI (SN12C renal): 1860 nM | GI50 (T-47D breast): 1180 nM | TGI (T-47D breast): 2410 nM | GI50 (COLO 205 colon): 44.1 nM | TGI (COLO 205 colon): 1070 nM | GI50 (HOP-92 NSCLC): 377 nM | TGI (HOP-92 NSCLC): 1670 nM | GI50 (MCF7 breast): 59.5 nM | TGI (MCF7 breast): 1220 nM | GI50 (SNB-19 CNS): 1570 nM | TGI (SNB-19 CNS): 2940 nM | GI50 (HS 578T breast): 651 nM | TGI (HS 578T breast): 1870 nM | GI50 (HOP-62 NSCLC): 1220 nM | TGI (HOP-62 NSCLC): 2490 nM | GI50 (SNB-75 CNS): 322 nM | TGI (SNB-75 CNS): 1440 nM | GI50 (A549 NSCLC): 858 nM | TGI (A549 NSCLC): 2120 nM | GI50 (HCT-116 colon): 361 nM | TGI (HCT-116 colon): 1580 nM | GI50 (DU-145 prostate): 389 nM | TGI (DU-145 prostate): 1710 nM | GI50 (SK-OV-3 ovarian): 334 nM | TGI (SK-OV-3 ovarian): 1440 nM | GI50 (KM12 colon): 209 nM | TGI (KM12 colon): 679 nM | GI50 (CAKI-1 renal): 252 nM | TGI (CAKI-1 renal): 1070 nM | GI50 (HT29 colon): 55.9 nM | TGI (HT29 colon): 1350 nM | GI50 (UACC-62 melanoma): 385 nM | TGI (UACC-62 melanoma): 1770 nM | GI50 (HCT-15 colon): 265 nM | TGI (HCT-15 colon): 1460 nM | GI50 (HCC-2998 colon): 349 nM | TGI (HCC-2998 colon): 1680 nM | GI50 (SF-539 CNS): 453 nM | TGI (SF-539 CNS): 1820 nM | GI50 (OVCAR-3 ovarian): 666 nM | TGI (OVCAR-3 ovarian): 2040 nM | GI50 (PC-3 prostate): 1090 nM | TGI (PC-3 prostate): 2330 nM | GI50 (NCI-H322M lung): 254 nM | TGI (NCI-H322M lung): 1420 nM | GI50 (M14 melanoma): 388 nM | TGI (M14 melanoma): 1620 nM | GI50 (TK-10 renal): 988 nM | TGI (TK-10 renal): 2180 nM | GI50 (CCRF-CEM leukemia): 886 nM | TGI (CCRF-CEM leukemia): 2100 nM | GI50 (SK-MEL-28 melanoma): 1270 nM | TGI (SK-MEL-28 melanoma): 2530 nM | GI50 (MDA-MB-231 breast): 1080 nM | TGI (MDA-MB-231 breast): 2300 nM | GI50 (MOLT-4 leukemia): 437 nM | TGI (MOLT-4 leukemia): 1640 nM | GI50 (UO-31 renal): 655 nM | TGI (UO-31 renal): 1950 nM | GI50 (MDA-MB-468 breast): 667 nM | TGI (MDA-MB-468 breast): 1930 nM | GI50 (LOX IMVI melanoma): 541 nM | TGI (LOX IMVI melanoma): 1860 nM | GI50 (HL-60(TB) leukemia): 21.4 nM | TGI (HL-60(TB) leukemia): 424 nM | GI50 (MALME-3M melanoma): 172 nM | TGI (MALME-3M melanoma): 1510 nM | GI50 (NCI-H23 lung): 318 nM | TGI (NCI-H23 lung): 1760 nM | GI50 (NCI-H460 NSCLC): 184 nM | TGI (NCI-H460 NSCLC): 1390 nM | GI50 (SW-620 colon): 254 nM | TGI (SW-620 colon): 1330 nM | GI50 (EKVX NSCLC): 215 nM | TGI (EKVX NSCLC): 1470 nM | GI50 (SK-MEL-5 melanoma): 610 nM | TGI (SK-MEL-5 melanoma): 2040 nM | GI50 ([…]-0 renal): 1010 nM | TGI (786-0 renal): 2190 nM | GI50 (ACHN renal): 535 nM | TGI (ACHN renal): 1860 nM | GI50 (U251 glioblastoma): 1210 nM | TGI (U251 glioblastoma): 2480 nM
